Data from publication PMC7961380, “A Systematic Study of the In Vitro Pharmacokinetics and Estimated Human In Vivo Clearance of Indole and Indazole-3-Carboxamide Synthetic Cannabinoid Receptor Agonists Detected on the Illicit Drug Market” (Molecules, 2021).

Columns and labels:
[1] = Metabolic stability, pooled human liver microsome incubations; conditions: for % parent compound remaining, Average / Microsomal Intrinsic Clearance, CLint micr / Intrinsic clearance, CLint: pHLM; for Microsomal Intrinsic Clearance, CLint micr / T1/2: n ≥ 3 ± SD; for T1/2: pHLM 0.5 mg mL^−1, 0.5 µM, NADPH, 37 °C
Protocol: Total incubation volume was 500 µL. Procedure: Test compound working solutions (50 µM in potassium phosphate buffer (pH 7.4)) were prepared (<1% DMSO). pHLM were thawed and diluted in potassium phosphate buffer (pH 7.4). […] Reactions were quenched in 200 µL ACN spiked with donepezil (IS, 50 ng mL^−1). […] Samples were analysed by UPLC-MS/MS in a 96 deep-well 2 mL plate. Each SCRA was incubated at least in triplicate but additional incubations were carried out across a number of analytical batches, giving greater replication and a greater understanding of system variability. Microsomal scaling factors used for human liver microsome incubations in the literature vary. Intrinsic clearance and predicted in vivo clearance rates calculated using alternative scaling factors found in the literature is provided in Section S6 of the supplementary information, to aid comparison of data between publications.
Equations used for in vitro intrinsic clearance calculation and human in vivo clearance […]
The equations used for in vitro intrinsic clearance calculation and human in vivo clearance estimation […]
Microsomal clearance (HLM incubations) in mL min-1 mg microsomal protein-1 [3]
Intrinsic clearance (whole-liver dimensions) (HLM incubations) in mL min-1 kg-1 [3] CL = k x V x [Liver](g) x SF Eqn. 7 […]
mg g microsomal protein-1 [7]
Intrinsic clearance (whole-liver dimensions) (HHep incubations) in mL min-1 kg-1 [4] CL = k x V x hepatocytes/g liver x [Liver](g) Eqn. 8 […]
Where: hepatocytes/g liver = 107x10^6 cells/g liver
Hepatic clearance in mL min-1 kg-1 [3]
[…] Eqn. 9
Where: Q = hepatic blood flow, 21 mL min-1 kg-1 [9]; fu = fraction unbound (plasma); CLint = […]
Estimated human hepatic extraction ratio [5]
Intrinsic clearance data – pooled human liver microsome incubations […]
table S4-28. Intrinsic clearance and predicted in vivo data calculated using alternative microsomal scaling factors found in the literature – 32 [10] and 45 [11] mg microsomal protein per gram liver – are provided in tables S29 and S30, respectively.

[2] = system: pooled human cryopreserved hepatocytes (pHHeps); assay: Metabolic stability, pooled human cryopreserved hepatocyte incubations; conditions: for % parent compound remaining, Average / Intrinsic clearance, CLint: pHHeps; for T1/2: pHHeps 0.25 million cells mL^−1, 0.5 µM, 37 °C, n ≥ 3 ± SD
[3] = alternative microsomal scaling factor 45 mg microsomal protein per gram liver
[4] = alternative hepatocyte cell density 99x10^6 hepatocytes per gram liver

Compound	% parent compound remaining, Average ([1]; 3 min) [%]	% parent compound remaining, Average ([1]; 6 min) [%]	% parent compound remaining, Average ([1]; 9 min) [%]	% parent compound remaining, Average ([1]; 15 min) [%]	% parent compound remaining, Average ([1]; 30 min) [%]	Microsomal Intrinsic Clearance, CLint micr [1]	% parent compound remaining, Average ([2]; 3 min) [%]	% parent compound remaining, Average ([2]; 6 min) [%]	% parent compound remaining, Average ([2]; 9 min) [%]	% parent compound remaining, Average ([2]; 15 min) [%]	% parent compound remaining, Average ([2]; 30 min) [%]	% parent compound remaining, Average ([2]; 45 min) [%]	% parent compound remaining, Average ([2]; 60 min) [%]	other results
COC(=O)C(NC(=O)c1nn(CCCCCF)c2ccccc12)C(C)C (stereo in doubt) [(R)-5F-AMB-PINACA (10), methyl [1-(5-fluoropentyl)-1H-indazole-3-carbonyl]valinate]	64.1	51.0	38.0	21.7	6.8	0.213 ± 0.014 mL min^−1 mg Microsomal Protein^−1	69.9	35.6	28.2	12.1	3.1	0.9	0.2	
COC(=O)C(NC(=O)c1cn(CC2CCCCC2)c2ccccc12)C(C)C (stereo in doubt) [(R)-AMB-CHMICA (9), methyl [1-(cyclohexylmethyl)-1H-indole-3-carbonyl]valinate]	73.0	53.6	47.4	30.4	11.3	0.167 ± 0.019 mL min^−1 mg Microsomal Protein^−1	62.7	61.2	45.1	26.7	11.8	5.9	3.2	
COC(=O)C(NC(=O)c1nn(Cc2ccc(F)cc2)c2ccccc12)C(C)C (stereo in doubt) [(R)-AMB-FUBINACA (1), methyl [1-(4-fluorobenzyl)-1H-indazole-3-carbonyl]valinate]	57.2	46.7	34.5	20.5	6.8	0.237 ± 0.020 mL min^−1 mg Microsomal Protein^−1	41.1	22.5	21.4	12.3	2.7	0.9	0.8	
CCOc1ccc2ccc(=O)oc2c1 [7-ethoxycoumarin, reference compound]							91.4	89.4	80.0	73.7	54.9	40.7	29.0	Intrinsic clearance, CLint ([2]; scaled to whole liver, 107x10^6 cells/g liver): 55 to 305 mL/min/kg
O=c1ccc2ccc(O)cc2o1 [7-hydroxycoumarin, reference compound]							98.6	97.5	95.7	90.8	75.8	67.2	55.8	intrinsic clearance rate ([2]; pHHeps positive control, range over batches): 46 to 238 min⁻¹ kg⁻¹
CC(C)[C@@H](NC(=O)c1nn(Cc2ccc(F)cc2)c2ccccc12)C(N)=O [(R)-AB-FUBINACA (8), N-(1-amino-3-methyl-1-oxobutan-2-yl)-1-(4-fluorobenzyl)-1H-indazole-3-carboxamide]	89.5	90.5	88.4	82.9	83.9	0.010 ± 0.003 mL min^−1 mg Microsomal Protein^−1	96.7	86.5	84.9	84.4	75.2	82.9	78.8	T1/2 [1]: 145 ± 45 min; Intrinsic clearance, CLint [1, 3]: 11.8 mL/min/kg; T1/2 [2]: 69 ± 11 min; Intrinsic clearance, CLint [2, 4]: 105 ± 14.6 mL/min/kg
CC(C)[C@@H](NC(=O)c1nn(CC2CCCCC2)c2ccccc12)C(N)=O [(R)-AB-[…] (11)] [N-[1-amino-3-methyl-1-oxobutan-2-yl]-1-(cyclohexylmethyl)-1H-indazole-3-carboxamide]						0.033 ± 0.004 mL min^−1 mg Microsomal Protein^−1								T1/2 [1]: 43 ± 5.0 min; % parent compound remaining, Average ([1]; 3 min, […]): 84.0%; % parent compound remaining, Average ([1]; 6 min, […]): 84.4%; % parent compound remaining, Average ([1]; 9 min, […]): 82.1%; % parent compound remaining, Average ([1]; 15 min, […]): 73.6%; % parent compound remaining, Average ([1]; 30 min, […]): 59.0%; Intrinsic clearance, CLint ([1]; alternative microsomal scaling factor 32 mg microsomal protein per gram liver): 26.9 mL/min/kg; Intrinsic clearance, CLint [1, 3]: 37.8 ± 4.19 mL/min/kg; T1/2 [2]: 38 ± 8.7 min; % parent compound remaining, Average ([2]; 3 min, […]): 91.3%; % parent compound remaining, Average ([2]; 6 min, […]): 89.8%; % parent compound remaining, Average ([2]; 9 min, […]): 88.6%; % parent compound remaining, Average ([2]; 15 min, […]): 86.6%; % parent compound remaining, Average ([2]; 30 min, […]): 73.0%; % parent compound remaining, Average ([2]; 45 min, […]): 75.2%; % parent compound remaining, Average ([2]; 60 min, […]): 76.2%; Intrinsic clearance, CLint [2, 4]: 197 ± 50.3 mL/min/kg
